Test results from US20220054595A1, “Formulation Including a Combination of beta-Endorphin and Adrenocorticotropic Hormone” (Adamis Pharmaceuticals Corporation, priority 2019, published 2022).

What was measured:
[1] = test system: EAE induced in SJL mice by PLP139-151/CFA immunization; assay: EAE in SJL mice, late therapeutic treatment: clinical findings; assay type: in vivo, mouse
Procedure: (§1) The effect of administration of two dosages of ACTH and β-endorphin on severity and relapse in EAE was evaluated. EAE was induced in SJL mice by PLP139-151/CFA immunization on Day 0. Treatment was late therapeutic, starting on Day 20 after immunization for each mouse. Mice were observed through the end of the study, Day 42 after immunization. Four groups of 20 mice each received one of the following treatments: vehicle (a negative control); 10 mg/kg oral prednisolone daily (reference treatment); 32 μg ACTH+16 μg endorphin by subcutaneous injection, every 2nd day (low dose); or 64 μg ACTH+32 μg β-endorphin by subcutaneous injection, every 2nd day (high dose).
Mice were injected subcutaneously at four sites in the back with emulsion containing PLP139-151 (native sequence) from HOOKE KIT™ PLP139-151/CFA Emulsion, catalog number EK-0120 (Hooke Laboratories, Lawrence Mass.). Two sites of injection were in the upper back approximately 1 cm caudal of the neck line. The other two sites were in the lower back approximately 2 cm cranial of the base of the tail. The injection volume was 0.05 mL at each site. Even without treatment, most mice recover spontaneously after the first wave of disease. In the SJL model, EAE develops 10-15 days after immunization in 90-100% of immunized mice. The first wave of EAE lasts several days and most mice fully or almost fully recover from this first wave. After a disease-free period, which can last from one day to several months, most mice relapse. During the first 5-7 weeks after immunization, 50-100% of mice will develop a relapse. Each wave of paralysis results in body weight loss at onset, most of which is regained at recovery from the wave. The greatest weight loss is during the first wave of EAE. During the chronic phase of disease, the average EAE body weight is relatively stable, with normal slow increase with age. Since individual mice experience relapses at different times, only a few mice in each group are acutely sick at any given time after the first wave of EAE. Therefore, significant differences in relative body weight between groups are often not found after the first wave of disease in this model. In the vehicle treated group, disease developed as expected for this model. Five (5) mice were euthanized on Day 30 for analysis. Relapse occurred in 7 out of the 15 remaining mice, which were followed to Day 42, with typical course and severity of disease.
100 EAE induced mice were initially considered a single group and were scored daily starting on Day 9 after immunization. On Day 20, mice were assigned to the experimental groups in a balanced manner to achieve groups with similar times of EAE onset, similar maximum EAE score and similar scores at the time of enrollment into treatment (see Table 2). The remaining mice, which developed EAE last, or which developed unusual signs of EAE such as head tilting, were not assigned to any treatment group. […]
Treatment started on the day of group assignment (Day 20 after immunization). […] EAE score was determined daily by a person unaware of both treatment and of previous scores for each mouse. Weight was measured 3 times a week. […]

[2] = test system: EAE induced in SJL mice by PLP139-151/CFA immunization; assay: EAE in SJL mice: histological and immunohistological analyses; assay type: in vivo, mouse
Procedure: as §1
Treatment started on the day of group assignment (Day 20 after immunization). This was the time of the expected end of the first wave of EAE and before relapses were expected to begin. Treatment continued through Day 41. EAE score was determined daily by a person unaware of both treatment and of previous scores for each mouse. Weight was measured 3 times a week. Five mice in each group were euthanized on day 30 and the fifteen remaining mice euthanized at the end of the study (Day 42). Histological and immunohistological analyses were performed on tissue collected from the euthanized mice.

[3] = test system: acute epileptic extensor spasms (AEES) in Ts65Dn mouse; conditions: GABABR agonist-treated Ts65Dn mouse; cited from earlier work

**Q.** With `C[C@]12C=CC(=O)C=C1CC[C@@H]1[C@@H]2[C@@H](O)C[C@@]2(C)[C@H]1CC[C@]2(O)C(=O)CO` [Prednisolone, prednisolone] as the molecule, how does the “End score ± SD” value ([1]; EAE score (scale 0-5) at end of study, mice followed until Day 42) read?
**A.** 1.47 ± 1.04

**Q.** And the “Body weight change versus vehicle control (in words)” value ([1]; end of study)?
**A.** statistically significant loss of weight versus the vehicle control

**Q.** And the “MMS of relapse period ± SD (Days 25-42)” value ([1]; mean maximal EAE score (scale 0-5), mice followed until Day 42, all mice in the group)?
**A.** 2.07 ± 1.10

**Q.** And the Incidence of relapse ([1]; mice followed until Day 42, treatment Day 20-41, mice that relapsed as proportion of surviving mice that developed first wave of EAE)?
**A.** 33.3%

**Q.** What about the “End % body weight ± SD” value ([1]; relative body weight at end of study, mice followed until Day 42) of the same molecule?
**A.** 88.6% ± 9.3%

**Q.** What about the “Demyelination (anti-MBP) ± SD” value ([2]; anti-myelin basic protein staining score 0-5) of the same molecule?
**A.** 0.9 ± 0.6

**Q.** What about the “GFAP ± SD (% of area)” value ([2]; gliosis, % of total spinal cord area) of the same molecule?
**A.** 13.3 ± 2.0 % of area

**Q.** And the “lba1 ± SD (% of area)” value ([2]; microglial activation, % of total spinal cord area)?
**A.** 4.0 ± 1.2 % of area

**Q.** What about the “Demyelination, anti-myelin basic protein staining score versus vehicle (in words)” value ([2]; mouse, in vivo) of the same molecule?
**A.** only at best a trend to reduction

**Q.** And the “Gliosis (scarring), area of anti-GFAP staining versus vehicle (in words)” value ([2]; mouse, in vivo)?
**A.** a higher level of gliosis

**Q.** What about the “Inflammation and inflammatory infiltrates, number of inflammatory foci versus vehicle (in words)” value ([2]; mouse, in vivo) of the same molecule?
**A.** only at best a trend to reduction

**Q.** And the “Inflammatory foci/section ± SD” value ([2]; spinal cord histology of euthanized mice)?
**A.** 3.8 ± 2.4 foci/section

**Q.** With “Rodent ACTH: murine ACTH, SEQ ID NO: 9, SYSMEHFRWGKPVGKKRRPVKVYPNVAENESAEAFPLEF (listed as Mus musculus)” as the molecule, how does the “Reduction of AEES” value [3] read?
**A.** can significantly reduce AEES
